Measurements reported in PubChem BioAssay AID1259407 (Chemical Carcinogenesis Research Information System (CCRIS), 2018).
The source made the active and inactive calls. How the calls were made is not given here.

Test system: CCRIS mutagenicity, Ames/micronucleus/aberration tests
Experiment: CCRIS mutagenicity studies
[1] = Test System: AMES SALMONELLA TYPHIMURIUM, Strain/Indicator: TA98, Metabolic Activation: HAMSTER, LIVER, S-9, AROCLOR 1254, Method: STANDARD PLATE
[2] = Test System: AMES SALMONELLA TYPHIMURIUM, Strain/Indicator: TA98, Metabolic Activation: NONE, Method: STANDARD PLATE
[3] = Test System: AMES SALMONELLA TYPHIMURIUM, Strain/Indicator: TA98, Metabolic Activation: RAT, LIVER, S-9, AROCLOR 1254, Method: STANDARD PLATE
[4] = Test System: AMES SALMONELLA TYPHIMURIUM, Strain/Indicator: TA100, Metabolic Activation: HAMSTER, LIVER, S-9, AROCLOR 1254, Method: STANDARD PLATE
[5] = Test System: AMES SALMONELLA TYPHIMURIUM, Strain/Indicator: TA100, Metabolic Activation: NONE, Method: STANDARD PLATE
[6] = Test System: AMES SALMONELLA TYPHIMURIUM, Strain/Indicator: TA100, Metabolic Activation: RAT, LIVER, S-9, AROCLOR 1254, Method: STANDARD PLATE
[7] = Test System: AMES SALMONELLA TYPHIMURIUM, Strain/Indicator: TA1537, Metabolic Activation: NONE, Method: STANDARD PLATE
[8] = Test System: MOUSE LYMPHOMA, Strain/Indicator: L5178Y (TK+/TK-), Metabolic Activation: NONE, Method: SUSPENSION/PLATE
[9] = Test System: MOUSE LYMPHOMA, Strain/Indicator: L5178Y (TK+/TK-), Metabolic Activation: RAT, LIVER, S-9, AROCLOR 1254, Method: SUSPENSION/PLATE
[10] = Test System: AMES SALMONELLA TYPHIMURIUM, Strain/Indicator: TA1537, Metabolic Activation: NONE, Method: PREINCUBATION

Measured: mutagenic call

CC(=O)c1ccccn1
inactive: [1] inactive; negative | [2] inactive; negative | [3] inactive; negative | [4] inactive; negative | [5] inactive; negative | [6] inactive; negative | Test System: AMES SALMONELLA TYPHIMURIUM, Strain/Indicator: TA1535, Metabolic Activation: HAMSTER, LIVER, S-9, AROCLOR 1254, Method: STANDARD PLATE inactive; negative | Test System: AMES SALMONELLA TYPHIMURIUM, Strain/Indicator: TA1535, Metabolic Activation: NONE, Method: STANDARD PLATE inactive; negative | Test System: AMES SALMONELLA TYPHIMURIUM, Strain/Indicator: TA1535, Metabolic Activation: RAT, LIVER, S-9, AROCLOR 1254, Method: STANDARD PLATE inactive; negative | Test System: AMES SALMONELLA TYPHIMURIUM, Strain/Indicator: TA1537, Metabolic Activation: HAMSTER, LIVER, S-9, AROCLOR 1254, Method: STANDARD PLATE inactive; negative | [7] inactive; negative | Test System: AMES SALMONELLA TYPHIMURIUM, Strain/Indicator: TA1537, Metabolic Activation: RAT, LIVER, S-9, AROCLOR 1254, Method: STANDARD PLATE inactive; negative | Test System: AMES SALMONELLA TYPHIMURIUM, Strain/Indicator: TA1538, Metabolic Activation: HAMSTER, LIVER, S-9, AROCLOR 1254, Method: STANDARD PLATE inactive; negative | Test System: AMES SALMONELLA TYPHIMURIUM, Strain/Indicator: TA1538, Metabolic Activation: NONE, Method: STANDARD PLATE inactive; negative | Test System: AMES SALMONELLA TYPHIMURIUM, Strain/Indicator: TA1538, Metabolic Activation: RAT, LIVER, S-9, AROCLOR 1254, Method: STANDARD PLATE inactive; negative
active: [8] active; positive. reevaluation of results: positive | [9] active; positive. reevaluation of results: inconclusive

CC(=O)N(N=O)c1ccc2c(c1)Cc1ccccc1-2
active: Test System: CHINESE HAMSTER OVARY, Strain/Indicator: CHO/6-THIOGUANINE (HGPRT), Metabolic Activation: NONE, Method: STANDARD PLATE active; positive | Test System: CHINESE HAMSTER OVARY, Strain/Indicator: CHO/OUABAIN (HGPRT), Metabolic Activation: NONE, Method: STANDARD PLATE active; positive

N[C@@H](CS)C(=O)O
inactive: End Point: IN VIVO MICRONUCLEUS, Test System: BONE MARROW POLYCHROMATIC ERYTHROCYTES, Species: MOUSE, Strain/Sex: DDY/MALE, Route: IP inactive; negative | Test System: AMES SALMONELLA TYPHIMURIUM, Strain/Indicator: TA104, Metabolic Activation: RAT, KIDNEY, S-9, Method: STANDARD PLATE inactive; negative | Test System: AMES SALMONELLA TYPHIMURIUM, Strain/Indicator: TA1535, Metabolic Activation: RAT, KIDNEY, S-9, Method: PREINCUBATION inactive; negative | Test System: AMES SALMONELLA TYPHIMURIUM, Strain/Indicator: TA1537, Metabolic Activation: RAT, KIDNEY, S-9, Method: PREINCUBATION inactive; negative | Test System: CHINESE HAMSTER V-79, Strain/Indicator: V-79/6-THIOGUANINE, Metabolic Activation: NONE, Method: STANDARD PLATE inactive; negative
active: Test System: AMES SALMONELLA TYPHIMURIUM, Strain/Indicator: TA92, Metabolic Activation: HOMOGENIZED V-79, Method: STANDARD PLATE active; positive | Test System: AMES SALMONELLA TYPHIMURIUM, Strain/Indicator: TA92, Metabolic Activation: NONE, Method: STANDARD PLATE active; positive | Test System: AMES SALMONELLA TYPHIMURIUM, Strain/Indicator: TA92, Metabolic Activation: RAT, KIDNEY, S-9, Method: PREINCUBATION active; positive | Test System: AMES SALMONELLA TYPHIMURIUM, Strain/Indicator: TA92, Metabolic Activation: RAT, KIDNEY, S-9, Method: STANDARD PLATE active; positive | Test System: AMES SALMONELLA TYPHIMURIUM, Strain/Indicator: TA92, Metabolic Activation: RAT, LIVER, S-9, Method: STANDARD PLATE active; positive | Test System: AMES SALMONELLA TYPHIMURIUM, Strain/Indicator: TA97, Metabolic Activation: RAT, KIDNEY, S-9, Method: PREINCUBATION active; positive | Test System: AMES SALMONELLA TYPHIMURIUM, Strain/Indicator: TA97, Metabolic Activation: RAT, KIDNEY, S-9, Method: STANDARD PLATE active; positive | [1] active; positive | [3] active; positive | [4] active; positive | [5] active; positive | Test System: AMES SALMONELLA TYPHIMURIUM, Strain/Indicator: TA100, Metabolic Activation: RAT, KIDNEY, S-9, Method: PREINCUBATION active; positive | Test System: AMES SALMONELLA TYPHIMURIUM, Strain/Indicator: TA100, Metabolic Activation: RAT, KIDNEY, S-9, Method: STANDARD PLATE active; positive | [6] active; positive | Test System: AMES SALMONELLA TYPHIMURIUM, Strain/Indicator: TA100, Metabolic Activation: RAT, LIVER, S-9, Method: STANDARD PLATE active; positive | Test System: AMES SALMONELLA TYPHIMURIUM, Strain/Indicator: TA102, Metabolic Activation: NONE, Method: STANDARD PLATE active; positive | Test System: AMES SALMONELLA TYPHIMURIUM, Strain/Indicator: TA102, Metabolic Activation: RAT, KIDNEY, S-9, Method: PREINCUBATION active; positive | Test System: AMES SALMONELLA TYPHIMURIUM, Strain/Indicator: TA104, Metabolic Activation: RAT, KIDNEY, S-9, Method: PREINCUBATION active; positive | [8] active; positive. reevaluation of results: positive | [9] active; positive. reevaluation of results: positive

Nc1c2ccccc2nc2ccc(Cl)cc12
active: [10] active; positive

C=CC(=O)OCC(Br)CBr (stereo unspecified)
inactive: Test System: AMES SALMONELLA TYPHIMURIUM, Strain/Indicator: TA98, Metabolic Activation: NONE, Method: PREINCUBATION inactive; negative | Test System: AMES SALMONELLA TYPHIMURIUM, Strain/Indicator: TA98, Metabolic Activation: RAT, LIVER, S-9, AROCLOR 1254 (10%), Method: PREINCUBATION inactive; negative | Test System: AMES SALMONELLA TYPHIMURIUM, Strain/Indicator: TA100, Metabolic Activation: NONE, Method: PREINCUBATION inactive; negative | Test System: AMES SALMONELLA TYPHIMURIUM, Strain/Indicator: TA1537, Metabolic Activation: HAMSTER, LIVER, S-9, AROCLOR 1254 (10%), Method: PREINCUBATION inactive; negative | [10] inactive; negative | Test System: AMES SALMONELLA TYPHIMURIUM, Strain/Indicator: TA1537, Metabolic Activation: RAT, LIVER, S-9, AROCLOR 1254 (10%), Method: PREINCUBATION inactive; negative
active: Test System: AMES SALMONELLA TYPHIMURIUM, Strain/Indicator: TA98, Metabolic Activation: HAMSTER, LIVER, S-9, AROCLOR 1254 (10%), Method: PREINCUBATION active; positive | Test System: AMES SALMONELLA TYPHIMURIUM, Strain/Indicator: TA100, Metabolic Activation: HAMSTER, LIVER, S-9, AROCLOR 1254 (10%), Method: PREINCUBATION active; positive | Test System: AMES SALMONELLA TYPHIMURIUM, Strain/Indicator: TA100, Metabolic Activation: RAT, LIVER, S-9, AROCLOR 1254 (10%), Method: PREINCUBATION active; positive | Test System: AMES SALMONELLA TYPHIMURIUM, Strain/Indicator: TA1535, Metabolic Activation: HAMSTER, LIVER, S-9, AROCLOR 1254 (10%), Method: PREINCUBATION active; positive | Test System: AMES SALMONELLA TYPHIMURIUM, Strain/Indicator: TA1535, Metabolic Activation: NONE, Method: PREINCUBATION active; positive | Test System: AMES SALMONELLA TYPHIMURIUM, Strain/Indicator: TA1535, Metabolic Activation: RAT, LIVER, S-9, AROCLOR 1254 (10%), Method: PREINCUBATION active; positive

CC1(C)S[C@@H]2[C@H](NC(=O)Cc3ccccc3)C(=O)N2[C@H]1C(=O)O
inactive: [2] inactive; negative | [5] inactive; negative | [7] inactive; negative | Test System: E. COLI, Strain/Indicator: WP2 (HCR), Metabolic Activation: NONE, Method: STANDARD PLATE inactive; negative
